From patent US20120283297A1, “OXADIAZOLE SUBSTITUTED INDAZOLE DERIVATIVES FOR USE AS SPHINGOSINE 1-PHOSPHATE 1 (S1P1) RECEPTOR AGONISTS” (GLAXO WELLCOME HOUSE, priority 2009, published 2012)

Target: T1, S1P1 receptor (Homo sapiens, UniProt P21453)
T1 construct: TEV protease site; Gal4-VP16 transcription factor; expressed in transfected cells; host or cells: Tango GPCR-bla U2OS parental cell line (EDG1-bla/U2OS)
Test: S1P1 Tango Assay
Type: cell-based
Settings: agonist activity, recombinant EDG1-bla/U2OS cells, beta-lactamase FRET readout
From the text: The potencies and efficacies of the compounds of this invention for the S1P1 receptor can be determined by S1P1 Tango assay performed on the human cloned receptor as described herein.
Recombinant EDG1-bla/U2OS cells (contain the human Endothelial Differentiation Gene 1 (EDG1) linked to a TEV protease site and a Gal4-VP16 transcription factor stably integrated into the Tango GPCR-bla U2OS parental cell line) were harvested from growth medium and passaged into assay medium (Invitrogen Freestyle Expression Medium). The cells were starved for 24 hours at 37° C., 5% CO2, harvested and resuspended in assay medium at a density of ˜200,000 cells/ml. All test compounds were dissolved in DMSO at a concentration of 10 mM and were prepared in 100% DMSO to provide 10 point dose response curves. Test compounds prepared by Bravo (Velocity11) were added to wells in columns 2-11 and 13-22; DMSO was added to wells in columns 12 and 23 as unstimulated controls and assay medium was added to wells in columns 1 and 24 as cell-free controls. An S1P1 agonist was added to wells in row 2, columns 2-11 as stimulated controls and test compounds were added to wells in row 2, columns 13-22 and rows 3-15, columns 2-11/13-22 (row 1 and 16 were empty and not used). Compounds in solution were added to the assay plate (Greiner 781090) using an Echo (Labcyte) dose-response program (50 nl/well). The unstimulated and cell-free controls were loaded with 50 nl/well pure DMSO to ensure that the DMSO concentration was constant across the plate for all assays.
50 μl of the cell suspension was added to each well in columns 2-23 of the plate (˜10,000 cells per well). 50 μl of assay medium was added to each well in the cell-free controls (columns 1 and 24). The cells were incubated overnight at 37° C./5% CO2. 10 μl of 6× substrate mixture (LiveBLAzer™-FRET BIG substrate (CCF4-AM) Cat # K1096 from Invitrogen, Inc.) was added to each well using Bravo and the plates incubated at room temperature for 2 h in the dark. The plate was finally read on EnVision for two emission channels (460 nm and 530 nm).
The blue/green emission ratio (460 nm/530 nm) was calculated for each well, by dividing the background-subtracted Blue emission values by the background-subtracted Green emission values. The dose response curve is based on sigmoidal dose-response model. All ratio data was normalized based upon the maximum emission ratio of positive control and minimum emission ratio of negative control (DMSO) on each plate. The intrinsic activity (IA) of each compound would be the normalized percentage of its maximum response after curve fitting.

T1 sequence (P21453 whole entry, the tested form may be a part): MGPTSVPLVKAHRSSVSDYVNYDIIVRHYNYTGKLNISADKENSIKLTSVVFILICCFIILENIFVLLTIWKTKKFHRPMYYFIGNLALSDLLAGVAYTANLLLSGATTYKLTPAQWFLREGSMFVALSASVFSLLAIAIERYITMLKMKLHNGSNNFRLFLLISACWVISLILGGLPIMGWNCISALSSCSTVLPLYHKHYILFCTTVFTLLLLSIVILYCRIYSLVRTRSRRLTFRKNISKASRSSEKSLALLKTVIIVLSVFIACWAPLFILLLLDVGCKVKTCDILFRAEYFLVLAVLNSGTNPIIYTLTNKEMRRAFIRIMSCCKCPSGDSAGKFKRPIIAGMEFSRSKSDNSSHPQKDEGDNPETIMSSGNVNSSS

| SMILES | EC50 |
| --- | --- |
| CC(C)Oc1ncc(-c2nc(-c3ccc4c(cnn4CCC(=O)O)c3)no2)cc1Cl [Example 10, 3-[5-(5-{5-Chloro-6-[(1-methylethyl)oxy]-3-pyridinyl}-1,2,4-oxadiazol-3-yl)-1H-indazol-1-yl]propanoic acid] | 0.01 to 0.1 µM |
| CC(C)Oc1ccc(-c2nc(-c3cccc4c3cnn4C3(CC(=O)O)COC3)no2)cc1Cl [Example 8, {3-[4-(5-{3-Chloro-4-[(1-methylethyl)oxy]phenyl}-1,2,4-oxadiazol-3-yl)-1H-indazol-1-yl]-3-oxetanyl}acetic acid] | 0.01 to 0.1 µM |
| CC(C)Oc1ccc(-c2nc(-c3cccc4c3cnn4CCCCC(=O)O)no2)cc1Cl [Example 6, 5-[4-(5-{3-Chloro-4-[(1-methylethyl)oxy]phenyl}-1,2,4-oxadiazol-3-yl)-1H-indazol-1-yl]pentanoic acid] | 0.01 to 0.1 µM |
| CC(C)Oc1ncc(-c2nc(-c3cc4cn[nH]c4cc3Cl)no2)cc1Cl [Example 19, 6-Chloro-5-(5-{5-chloro-6-[(1-methylethyl)oxy]-3-pyridinyl}-1,2,4-oxadiazol-3-yl)-1H-indazole] | 0.001 to 0.01 µM |
| CC(C)Oc1ncc(-c2nc(-c3cc4cnn(CCCC(=O)O)c4cc3F)no2)cc1Cl [Example 17, 4-[5-(5-{5-Chloro-6-[(1-methylethyl)oxy]-3-pyridinyl}-1,2,4-oxadiazol-3-yl)-6-fluoro-1H-indazol-1-yl]butanoic acid] | 0.01 to 0.1 µM |
| Cc1c(-c2noc(-c3cnc(OC(C)C)c(Cl)c3)n2)ccc2c1cnn2CCCC(=O)O [Example 13, 4-[5-(5-{5-Chloro-6-[(1-methylethyl)oxy]-3-pyridinyl}-1,2,4-oxadiazol-3-yl)-4-methyl-1H-indazol-1-yl]butanoic acid] | 0.001 to 0.01 µM |
| CC(C)Oc1ccc(-c2nc(-c3cccc4c3cnn4CC(O)C(=O)O)no2)cc1Cl (single isomer, unassigned) [Example 9, Lithium 3-[4-(5-{3-chloro-4-[(1-methylethyl)oxy]phenyl}-1,2,4-oxadiazol-3-yl)-1H-indazol-1-yl]-2-hydroxypropanoate] | 0.001 to 0.01 µM |
| CC(C)Oc1ccc(-c2nc(-c3cccc4c3cnn4CC(C)C(=O)O)no2)cc1Cl (centres unmarked) [Example 5, 3-[4-(5-{3-Chloro-4-[(1-methylethyl)oxy]phenyl}-1,2,4-oxadiazol-3-yl)-1H-indazol-1-yl]-2-methylpropanoic acid] | 0.01 to 0.1 µM |

Results, then the compound that gave them:

| EC50 | SMILES |
| --- | --- |
| ≤ 0.001 µM | CC(C)Oc1ncc(-c2nc(-c3ccc4c(cnn4CCCC(=O)O)c3)no2)cc1C#N [Example 14, 4-[5-(5-{5-Cyano-6-[(1-methylethyl)oxy]-3-pyridinyl}-1,2,4-oxadiazol-3-yl)-1H-indazol-1-yl]butanoic acid] |
| 0.001 to 0.01 µM | CC(C)Oc1ccc(-c2nc(-c3ccc4[nH]ncc4c3)no2)cc1C#N [Example 2, 5-[3-(1H-Indazol-5-yl)-1,2,4-oxadiazol-5-yl]-2-[(1-methylethyl)oxy]benzonitrile] |
| ≤ 0.001 µM | CC(C)Oc1ccc(-c2nc(-c3ccc4[nH]ncc4c3)no2)cc1Cl [Example 1, 5-(5-{3-Chloro-4-[(1-methylethyl)oxy]phenyl}-1,2,4-oxadiazol-3-yl)-1H-indazole] |
| ≤ 0.001 µM | CC(C)Oc1ccc(-c2nc(-c3cccc4[nH]ncc34)no2)cc1C#N [Example 3, 5-[3-(1H-Indazol-4-yl)-1,2,4-oxadiazol-5-yl]-2-[(1-methylethyl)oxy]benzonitrile] |
| 0.01 to 0.1 µM | CC(C)Oc1ncc(-c2nc(-c3ccc4[nH]ncc4c3)no2)cc1Cl [Example 11, 5-(5-{5-Chloro-6-[(1-methylethyl)oxy]-3-pyridinyl}-1,2,4-oxadiazol-3-yl)-1H-indazole] |
| 0.01 to 0.1 µM | CC(C)Oc1ccc(-c2nc(-c3cccc4[nH]ncc34)no2)cc1Cl [Example 4, 4-(5-{3-Chloro-4-[(1-methylethyl)oxy]phenyl}-1,2,4-oxadiazol-3-yl)-1H-indazole] |
